Source: US4748161A, “Triterpenyl esters of organic acids and hypolipidemic agents composed of them” (Amano Pharmaceutical Co., Ltd., priority 1984, dated 1988)
Where two headings read alike, the source gives them in different places.

Legend:
[1] = Body weight of rats in method B; design: species or system male Wistar strain rats; conditions: rat, in vivo
Method: (§1) Male Wistar strain rats (100±1 g, each 8 rats were formed into a group except that the control group fed with a hyperlipidemic diet was formed of 16 rats) were used as test animals. A powdery diet (CE-2, supplied by Clea Japan, Inc.) was used as ordinary diet. The hyperlipidemic diet was prepared by fortifying the ordinary diet with cholesterol (1%) and cholic acid (0.5%). Each test compound (1%) for administration was admixed with the hyperlipidemic diet. Each two rats were kept in a cage and given the prescribed diet and water ad libitum. Thus the rats were fed for 4 weeks at a constant temperature of 23±1° C. and a constant R.H. of 55±5%. Finally, the rats were fasted from food except water for 16 hours (from 4 p.m. of the 28th test day to 8 a.m. of the 29th test day), and under anesthesia with pentbarbital sodium (tradename: Nembutal), blood was taken from each rat through the descending abdominal arota. Then, TC, HDL-C, TG, PL, and LPO in the serum were measured in the following manner.

[2] = system: serum lipids and serum lipid hydroperoxide; test: Pharmacological test method B for anti-hyperlipidemic activity (serum lipids, 4 weeks feeding); assay type: in vivo, male Wistar strain rats; design: AI Diff.: unit not given here; conditions: for AI [(TC - HDL-C)/(HDL-C)] / HDL-C in serum / LPO in serum / PL in serum / TC in serum / TG in serum: 1% in hyperlipidemic diet, 4 weeks; for change in vivo at 1 % in diet: Rattus norvegicus, po, 672 h; for change in vivo at 1 % in diet / AI Diff. / HDL-C Diff. / LPO Diff. / PL Diff. / TC % of diff. / TC Diff. / TG Diff.: versus control group
Method: Pharmacological test method B for anti-hyperlipidemic acitivity (the term "method B" was used in the present specification)
as §1
A TC kit-K (supplied by Nippon Shoji Kaisha, Ltd.) was used. The principle of this determination is as follows: The ester of cholesterol in the serum is hydrolyzed with cholesterol-ester hydrolase into free cholesterol and fatty acids. All the free cholesterol is oxidized with cholesterol oxydase to form Δ^4 -cholestenone and hydrogen peroxide. Phenol and 4-aminoantipyrin are oxidatively condensed together by the formed hydrogen peroxide and peroxydase. The produced red quinone coloring matter is measured by colorimetry for absorbance at 500 nm using a spectrophotometer, thereby determining the TC:
The color-developing liquid (3.0 ml) is well mixed with the sample serum (0.02 ml). The mixture once heated at 37° C. for 15 minutes, is measured for absorbance at 500 nm with a spectrophotometer. The found absorbance is denoted by EA. On the other hand, the color-developing liquid (3.0 ml) is well mixed with the standard solution. The mixture is treated and measured for absorbance at 500 nm in the same manner as the above. This found absorbance is denoted by ES. Both EA and ES are determined with reference to the value of the blank test conducted using the color-developing liquid (3.0 ml) alone. [formula]
An HDL-C kit-N (supplied by Nippon Shoji Kaisha, Ltd.) was used. […] (VLDL) and lo density lipoprotein (LDL) in the serum is precipitated by the action of heparin. The precipitate is separated by centrifugation. High density lipoprotein (HDL) is dissolved in the separated supernatant. Esters of cholesterol in this fraction is hydrolyzed with cholesterol-ester hydrolase into free cholesterol and fatty acids. All the free cholesterol is oxidized with cholesterol oxydase to form Δ^4 -cholestenone and hydrogen peroxide. Phenol and 4-aminoantipyrine are oxidatively condensed together by the formed hydrogen peroxide and peroxydase. The produced red quinone coloring matter is measured by colorimetry for absorbance at 500 nm using a spectrophotometer, thereby determining the HDL-C.
A PL kit-K (supplied by Nippon Shoji Kaisha, Ltd.) was used for the determination. Lecithin, sphingomyelin, and lysolecithin are decomposed by phospholipase D into choline and phosphatidic acid, N-acylsphingosyl phosphate, or lysophosphatidic acid, respectively. The resulting choline is quantitatively decomposed by choline oxydase into hydrogen peroxide and betaine. With this hydrogen peroxide, and aid of peroxydase, phenol and 4-aminoantipyrin are condensed into red quinone pigment, then the absorbance at 500 nm of which is measured with a spectrophotometer, thereby determining the PL. […]

| SMILES | Body weight during feed period, 1st day [1] [g] | Body weight during feed period, 8th day [1] [g] | Body weight during feed period, 15th day [1] [g] | Body weight during feed period, 22nd day [1] [g] | Body weight during feed period, 28th day [1] [g] | Body weight just before blood sampling, 29th day [1] [g] | AI [(TC - HDL-C)/(HDL-C)] [2] | HDL-C in serum [2] [mg/dL] | LPO in serum [2] [nmol/mL] | PL in serum [2] [mg/dL] | TC in serum [2] [mg/dL] | TG in serum [2] [mg/dL] | change in vivo at 1 % in diet ([2]; read-out: AI % of diff.) [%] | change in vivo at 1 % in diet ([2]; read-out: HDL-C % of diff.) [%] | change in vivo at 1 % in diet ([2]; read-out: LPO % of diff.) [%] | change in vivo at 1 % in diet ([2]; read-out: PL % of diff.) [%] | change in vivo at 1 % in diet ([2]; read-out: TG % of diff.) [%] | AI Diff. [2] | HDL-C Diff. [2] | LPO Diff. [2] [nmol/mL] | further results |
| --- | --- | --- | --- | --- | --- | --- | --- | --- | --- | --- | --- | --- | --- | --- | --- | --- | --- | --- | --- | --- | --- |
| COc1ccc(N)cc1C(=O)OC1CCC23CC24CCC2(C)C(C(C)CCC(C)=C(C)C)CCC2(C)C4CCC3C1(C)C (stereo not shown) [Example 173, cyclobranyl ester of 5-amino-2-methoxybenzoic acid] | 105 ± 3.6 | 142 ± 10.5 | 190 ± 18.2 | 240 ± 23.5 | 271 ± 24.2 | 258 ± 23.6 | 3.671 | 58.4 | 2.23 | 127.2 | 272.8 | 65.2 | – | – | – | – | – | – | – | – | HDL-C rise compared with normal diet group ([2]; versus normal diet group): remarkable rises |
| CCC(=Cc1ccc(O)c(OC)c1)C(=O)OC1CCC23CC24CCC2(C)C(C(C)CCC=C(C)C)CCC2(C)C4CCC3C1(C)C (stereo not drawn) [Example 120, cycloartenyl ester of 4-hydroxy-3-methoxy-α-ethylcinnamic acid] | 105 ± 3.2 | 144 ± 9.4 | 191 ± 18.2 | 242 ± 15.7 | 272 ± 20.1 | 258 ± 23.0 | 7.260 | 24.6 | 2.06 | 105.3 | 203.2 | 53.0 | -66.6 | 82.2 | -27 | -24.8 | -6.2 | -14.5 | +11.1 mg/dl | -0.76 | PL Diff. [2]: -34.8 mg/dL; TC % of diff. [2]: -33.9%; TC Diff. [2]: -104.1 mg/dL; TG Diff. [2]: -3.5 mg/dL |
| COc1cc(C=C(C)C(=O)OC2CCC34CC35CCC3(C)C(C(C)CCC=C(C)C)CCC3(C)C5CCC4C2(C)C)ccc1N (stereo not drawn) [Example 189, Cycloartenyl ester of 4-amino-3-methoxy-α-methylcinnamic acid] | 104 ± 3.8 | 142 ± 8.1 | 188 ± 12.6 | 239 ± 20.6 | 268 ± 22.7 | 256 ± 20.2 | 4.071 | 35.4 | 2.05 | 115.0 | 179.5 | 58.4 | – | – | – | – | – | – | – | – | – |
| COc1cc(C=C(C)C(=O)OC2CCC34CC35CCC3(C)C(C(C)CCC=C(C)C)CCC3(C)C5CCC4C2(C)C)ccc1O (stereo not drawn) [Example 114, cycloartenyl ester of 4-hydroxy-3-methoxy-α-methylcinnamic acid] | 105 ± 3.3 | 145 ± 9.5 | 194 ± 18.0 | 247 ± 16.6 | 277 ± 14.9 | 265 ± 14.5 | 4.711 | 24.2 | 2.04 | 96.7 | 138.2 | 39.0 | -78.4 | 79.3 | -27.7 | -31 | -31 | -17.05 | +10.7 mg/dl | -0.78 | PL Diff. [2]: -43.4 mg/dL; TC % of diff. [2]: -55.0%; TC Diff. [2]: -169.1 mg/dL; TG Diff. [2]: -17.5 mg/dL |
